From patent US8883738B2, “Use of a peptide fragment of CD44v6 in the treatment of ophthalmic diseases” (Karlsruher Institut für Technologie, priority 2009, dated 2014) come the findings set out here.

The subject of one assay is Erk. Kind of assay: Activation of Erk (phospho-Erk Western blot) in HUVEC. The assay is classed as cell-based, human. Particulars: 100 μg/ml anti-CD44v6, 100 ng/ml peptide, 0.5 μg/ml CD44v6ECD; for VEGF-A165 induced activation of Erk: VEGF-A165 40 ng/ml. The procedure: (§1) Activation of RTKs and Erk Serum starved cells (24 h) were induced with the growth factor HGF (20 ng/ml) at 37° C. for 5 min or with VEGF-A165 or VEGF-A121 (40 ng/ml) at 37° C. for 8 min. Where indicated, the cells were treated with blocking reagents prior to induction at 37° C. for 10 min (100 μg/ml anti-CD44v6, 100 ng/ml v6 peptide or 100 ng/ml control peptide, 0.5 μg/ml CD44v6ECD). Cells were washed with icecold PBS. To detect activated Erk, cells were lysed in boiling SDS-sample buffer containing 100 mM dithiothreitol (DTT) and subjected to Western blot analysis using antibodies against phosphorylated Erk. The Erk loading control was performed on the same blot stripped (62.5 mM Tris pH 6.8, 2% SDS, 0.8% DTT) and probed with the Erk antibody. To detect activated VEGFR-2, cells were lysed in reducing sample buffer and the blots of SDS-PAGE gels were probed with an antibody against phosphorylated VEGFR-2. Alternatively, lysates (20 mM Tris pH 7.4, 1 mM EDTA, 1 mM EGTA, 1 mM DTT, 25 mM NaCl, 1.5% Triton X-100, 10 mM NaF, 1 mM PMSF, 1 mM Na-orthovanadate, 1 mM aprotinin and leupeptin) were prepared. After centrifugation, the cleared lysates (12,000 rpm for 15 min) were incubated with VEGFR-2 antibody (clone A-3, Santa Cruz, Heidelberg, Germany) or a mouse IgG control (Santa Cruz, Heidelberg, Germany) at 4° C. overnight followed by incubation with Protein A/G agarose beads (Merck, Darmstadt, Germany) for 2 h at 4° C. The beads were washed three times, boiled in sample buffer and subjected to Western blot analysis using phospho-specific VEGFR-2 antibody. To obtain the loading control, the blots were stripped and reprobed with the VEGFR-2 antibody. Blots were stained using the enhanced chemiluminescence system (ECL, Thermo Fischer Scientific Inc., Waltham, Mass.). Bands in Western blot analysis were quantified with the program Image J.

For a further assay, the target named is T1, VEGFR-2 (Homo sapiens, UniProt P35968).
T1 construct: endogenous in cells; host or cells: HUVEC (Provitro GmbH)
T1 sequence (P35968 20-1356): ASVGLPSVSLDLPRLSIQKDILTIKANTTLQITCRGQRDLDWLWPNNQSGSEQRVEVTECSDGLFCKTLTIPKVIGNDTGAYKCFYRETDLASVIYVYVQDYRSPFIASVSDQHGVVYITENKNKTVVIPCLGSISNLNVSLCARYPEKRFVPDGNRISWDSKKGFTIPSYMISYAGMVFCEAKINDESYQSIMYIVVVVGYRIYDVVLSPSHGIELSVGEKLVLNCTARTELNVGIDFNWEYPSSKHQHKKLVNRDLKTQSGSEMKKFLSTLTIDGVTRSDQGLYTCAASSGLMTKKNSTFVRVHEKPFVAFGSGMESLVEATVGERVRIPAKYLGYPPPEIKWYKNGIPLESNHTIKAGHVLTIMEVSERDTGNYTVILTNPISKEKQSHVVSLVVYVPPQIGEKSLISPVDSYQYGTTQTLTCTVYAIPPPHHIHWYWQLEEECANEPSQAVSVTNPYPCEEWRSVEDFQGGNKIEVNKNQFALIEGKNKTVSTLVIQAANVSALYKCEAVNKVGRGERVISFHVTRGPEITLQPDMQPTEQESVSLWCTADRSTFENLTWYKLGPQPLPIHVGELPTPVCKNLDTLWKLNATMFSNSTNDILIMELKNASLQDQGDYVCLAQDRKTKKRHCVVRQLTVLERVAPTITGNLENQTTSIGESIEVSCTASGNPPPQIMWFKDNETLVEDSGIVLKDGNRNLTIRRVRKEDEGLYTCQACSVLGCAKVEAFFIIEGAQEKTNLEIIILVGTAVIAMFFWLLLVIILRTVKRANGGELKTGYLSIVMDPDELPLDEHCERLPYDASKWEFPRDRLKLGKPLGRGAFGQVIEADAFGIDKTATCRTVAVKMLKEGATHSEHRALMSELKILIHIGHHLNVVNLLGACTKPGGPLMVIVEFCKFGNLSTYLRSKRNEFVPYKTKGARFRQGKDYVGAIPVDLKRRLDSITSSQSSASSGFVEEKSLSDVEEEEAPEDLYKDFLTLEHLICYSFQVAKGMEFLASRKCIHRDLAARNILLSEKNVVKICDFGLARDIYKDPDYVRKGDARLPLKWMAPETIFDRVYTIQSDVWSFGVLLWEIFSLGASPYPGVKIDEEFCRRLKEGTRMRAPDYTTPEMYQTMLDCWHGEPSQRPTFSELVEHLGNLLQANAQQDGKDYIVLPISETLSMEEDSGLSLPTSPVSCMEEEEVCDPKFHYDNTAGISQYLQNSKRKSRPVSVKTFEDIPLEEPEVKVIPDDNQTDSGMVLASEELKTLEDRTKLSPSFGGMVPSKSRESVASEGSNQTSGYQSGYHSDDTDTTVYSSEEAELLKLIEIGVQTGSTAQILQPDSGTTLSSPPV
Kind of assay: Activation of VEGFR-2 (phospho-VEGFR-2 Western blot) in HUVEC. Format: cell-based. Particulars: 100 μg/ml anti-CD44v6, 100 ng/ml peptide. How it is done: as §1, with “After centrifugation, the cleared lysates (12,000 rpm for 15 min) were incubated with VEGFR-2 antibody (clone A-3, Santa Cruz, Heidelberg, Germany) or a mouse IgG control (Santa Cruz, Heidelberg, Germany) at 4° C. overnight followed by incubation with Protein A/G agarose beads (Merck, Darmstadt, Germany) for 2 h at 4° C. The beads were washed three times, boiled in sample buffer and subjected to Western blot analysis using phospho-specific VEGFR-2 antibody. To obtain the loading control, the blots were stripped and reprobed with the VEGFR-2 antibody. Blots were stained using the enhanced chemiluminescence system (ECL, Thermo Fischer Scientific Inc., Waltham, Mass.).” left out

For a further assay, the system named is MDA-MB231 tumors. The assay is described as follows: Orthotopic MDA-MB231 mammary tumor model, tumor-induced angiogenesis. The assay is classed as in vivo, SCID mice. The procedure: Injections of tumor cells MDA-MB231 cells (1×10^6 per animal) were harvested at subconfluency, washed with PBS and resuspended in 50 μl of PBS. The cells were implanted through a skin incision with an insulin syringe very slowly into the mammary fat pad of the fourth mammary complex of anesthetized female SCID mice (strain C.B-17/Ztm-scid). The incision was closed using an interrupted Vicryl suture for the skin (5/0, Ethicon, Norderstedt, Germany). The tumors were allowed to grow for one week, then the animals were divided in groups (6 to 7 animals per group) and treated with 20 μg of anti-mouse CD44v6 (clone 9A4), control IgG (NatuTec, Frankfurt, Germany), mouse v6 peptide or control peptide three times per week i.p. Tumor growth was monitored once per week using a caliper or via fpVCT imaging (see below). The animals were sacrificed 5 weeks after tumor cell implantation, the tumors were excised, measured, divided in halves and fixed in 4% formalin or zinc fixative (0.5 g/l calcium acetate, 5 g/l zinc acetate, 5 g/l zinc chloride in 0.1 M Tris pH 7.4) for 24 h for immunohistological analysis. L3.6pl human pancreatic cancer cells were injected orthotopically. Briefly, a small left abdominal flank incision was made and the spleen was exteriorized. […] The tumor volume was calculated as length×height×width divided by 2. […]

With “KEQWFGNRWHEGYR (listed as Homo sapiens) [v6 human peptide (14mer)]”, the “VEGF-A165 induced activation of Erk” value in the assay on Erk is recorded as “abrogated”. For the same substance, in the assay with VEGFR-2 (VEGF-A165 40 ng/ml), the “activation of VEGFR-2 by VEGF-A165” value is reported as “abrogated”.

As to “QETWFQNGWQGKNP (listed as Mus musculus) [v6 murine peptide]”, the tumor growth entry in the assay with MDA-MB231 tumors (20 μg i.p. three times per week for four weeks) was “not influenced”. The “average vessel number (microvessel density)” value in the assay with MDA-MB231 tumors (CD31 stained tumor sections, 20 μg i.p. three times per week, five animals each) worked out at 183 per mm^2.

On to “CD44v6ECD: soluble CD44v6 ectodomain produced in Pichia pastoris”, for which, in the assay with Erk (HGF 20 ng/ml), the “HGF induced activation of Erk” value was “completely abrogated”. Besides, the “VEGF-A121 induced activation of Erk” value in the assay with Erk (VEGF-A121 40 ng/ml) is listed as “completely blocked”. Also, in the assay on Erk, the “VEGF-A165 induced activation of Erk” value is on record as “completely abrogated”. Moreover, the “activation of VEGFR-2 by VEGF-A121” value with VEGFR-2 (VEGF-A121 40 ng/ml, 0.5 μg/ml CD44v6ECD) is “completely blocked”.
